# Test results as given in article PMC5515969, “Effects of 31 FDA approved small-molecule kinase inhibitors on isolated rat liver mitochondria” (Archives of Toxicology, 2016).
# Like-named read-outs stand apart in the source and are kept apart here.
# Tests used:
# [1] = system: isolated rat liver mitochondria; conditions: positive control alamethicin treated samples
# RCC II = biological target: T1, RCC II (Rattus norvegicus, UniProt P21913+Q641Z9+Q6PCT8+Q920L2); experiment: RCC II activity in submitochondrial particles; assay type: biochemical; parameters: key: activity relative to DMSO-treated controls (control set as 1 = 100%); conditions: DMSO treated samples set as 1
# T1 construct: Submitochondrial particles were prepared by subjecting the intact mitochondria to three successive freeze–thaw cycles; from tissue; host or cells: rat liver mitochondria, used as submitochondrial particles
# How it was run: (§1)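 Kinase inhibitors were preincubated 15 min with submitochondrial particles (1 mg/ml) before complex activities were measured. RCC I was the rotenone-sensitive portion (activity without minus with rotenone). RCC I/V was read at 340 nm and RCC II at 600 nm every 1 min for 6 min. RCC III and IV were read at 550 nm every 10 s for 2 min. Activities are normalized to DMSO controls set as 1.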
# [2] = system: isolated rat liver mitochondria; experiment: Mitochondrial oxygen consumption (glutamate/malate or succinate driven, state 4 and state 3); assay type: biochemical; conditions: for Glutamate/malate driven respiration State 3 / Glutamate/malate driven respiration State 4 / Succinate-driven respiration State 3 / Succinate-driven respiration State 4: oxygen consumption, DMSO-treated = 1; for State 3 respiration driven by succinate at 10XCmax: key: 0 indicates that the drug had no effects (negative); for State 3 respiration driven by succinate at 1XCmax: key: 0 indicates that the drug had no effects (negative)
# How it was run: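 Rat liver mitochondria (1 mg/ml protein) exposed 5 min to kinase inhibitors in 0.1% DMSO, then O2 consumption measured by Clark-type electrode with glutamate/malate or succinate (state 4), ADP added after 3 min (state 3). Rates normalized to 0.1% DMSO controls set to 1.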
# [3] = cited from earlier work
# RCC I = RCC I activity in submitochondrial particles; assay type: biochemical, rat; parameters: key to RCC I at 10XCmax / RCC I at 100XCmax / RCC I at 50XCmax / RCC I at 30XCmax / RCC I at 20XCmax: activity relative to DMSO-treated controls (control set as 1 = 100%); conditions: 10XCmax; DMSO treated samples set as 1
# How it was run: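 Abs 340 nm (I/V) or 600 nm (II), 1-min reads × 6 min; 550 nm (III, IV), 10-s reads × 2 min. RCC I = rotenone-free minus rotenone rate. DMSO control = 1.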
# RCC V = RCC V activity in submitochondrial particles; assay type: biochemical, rat; conditions: DMSO treated samples set as 1; for RCC V at 5XCmax: key: 0 indicates that the drug had no effects (negative)
# How it was run: as §1
# [4] = system: isolated rat liver mitochondria; experiment: Mitochondrial ROS production (CM-H2DCFDA); conditions: DMSO treated samples set as 1
# [5] = system: isolated rat liver mitochondria; experiment: Mitochondrial inner membrane potential (MMP), Rhodamine 123; assay type: biochemical; conditions: difference in signal between KI and DMSO treated samples at the end of experiments
# Text: Fig. 3 KI effects on mitochondrial inner membrane potential (MMP). […] In a, c, data are means and standard derivations from three separate experiments. *p < 0.05 as compared to DMSO-treated samples at the end of experiments. In b, data are means of two independent experiments
# RCC III = RCC III activity in submitochondrial particles; assay type: biochemical, rat; parameters: key to RCC III at 100XCmax: activity relative to DMSO-treated controls (control set as 1 = 100%); conditions: 100XCmax
# How it was run: as §1
# [6] = 1XCmax, DMSO treated samples set as 1
# [7] = 2.5XCmax, DMSO treated samples set as 1
# [8] = 5XCmax, DMSO treated samples set as 1
# [9] = 10XCmax, DMSO treated samples set as 1
# [10] = 20XCmax, DMSO treated samples set as 1
# [11] = 30XCmax, DMSO treated samples set as 1
# [12] = 50XCmax, DMSO treated samples set as 1
# [13] = 100XCmax, DMSO treated samples set as 1
# T1 sequence (Q920L2 35-656): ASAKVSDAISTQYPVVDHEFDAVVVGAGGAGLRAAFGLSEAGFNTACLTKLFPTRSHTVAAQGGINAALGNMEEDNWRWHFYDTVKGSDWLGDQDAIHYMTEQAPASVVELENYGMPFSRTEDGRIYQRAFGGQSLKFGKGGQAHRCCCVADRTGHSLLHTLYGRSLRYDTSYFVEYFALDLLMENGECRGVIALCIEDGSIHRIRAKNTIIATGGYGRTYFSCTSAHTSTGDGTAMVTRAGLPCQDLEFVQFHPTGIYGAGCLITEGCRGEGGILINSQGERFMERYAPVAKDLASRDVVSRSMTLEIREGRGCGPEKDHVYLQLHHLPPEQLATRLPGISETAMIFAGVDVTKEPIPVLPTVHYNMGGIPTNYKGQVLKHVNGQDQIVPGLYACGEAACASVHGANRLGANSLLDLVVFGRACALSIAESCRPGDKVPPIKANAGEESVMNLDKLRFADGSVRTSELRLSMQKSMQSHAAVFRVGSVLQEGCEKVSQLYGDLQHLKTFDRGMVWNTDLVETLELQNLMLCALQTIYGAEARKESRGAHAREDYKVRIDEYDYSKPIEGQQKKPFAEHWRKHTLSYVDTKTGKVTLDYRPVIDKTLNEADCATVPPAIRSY
# T1 sequence (P21913 31-282): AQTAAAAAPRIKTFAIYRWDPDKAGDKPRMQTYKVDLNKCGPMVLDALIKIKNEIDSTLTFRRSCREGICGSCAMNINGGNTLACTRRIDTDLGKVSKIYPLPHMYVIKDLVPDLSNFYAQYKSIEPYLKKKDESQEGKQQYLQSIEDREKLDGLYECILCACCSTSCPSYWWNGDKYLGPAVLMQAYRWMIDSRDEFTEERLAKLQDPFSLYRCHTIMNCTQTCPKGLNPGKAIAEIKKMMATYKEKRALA
# T1 sequence (Q641Z9 1-169): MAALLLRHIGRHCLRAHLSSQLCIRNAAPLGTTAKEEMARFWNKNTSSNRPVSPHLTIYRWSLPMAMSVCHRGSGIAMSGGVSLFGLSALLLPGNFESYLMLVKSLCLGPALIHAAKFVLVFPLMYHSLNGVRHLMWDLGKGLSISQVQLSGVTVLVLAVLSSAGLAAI
# T1 sequence (Q6PCT8 57-159): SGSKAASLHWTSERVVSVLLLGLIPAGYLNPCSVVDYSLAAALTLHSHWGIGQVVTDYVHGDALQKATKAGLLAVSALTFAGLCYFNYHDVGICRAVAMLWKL
structure (smiles),measurement,setting,value
COc1cc2nccc(Oc3ccc(NC(=O)NC4CC4)c(Cl)c3)c2cc1C(N)=O [Lenvatinib],Cytochrome c release 1XCmax,[1]; 1XCmax,0
same,Cytochrome c release 2.5XCmax,[1]; 2.5XCmax,0
same,Cytochrome c release 5XCmax,[1]; 5XCmax,0
same,Cytochrome c release 10XCmax,[1]; 10XCmax,0
same,Cytochrome c release 20XCmax,[1]; 20XCmax,0
same,Cytochrome c release 30XCmax,[1]; 30XCmax,0
same,Cytochrome c release 50XCmax,[1]; 50XCmax,0
same,Cytochrome c release 100XCmax,[1]; 100XCmax,0
same,RCC II at 1.0XCmax,RCC II; 1.0XCmax,0
same,RCC II at 2.5XCmax,RCC II; 2.5XCmax,0
same,RCC II at 5XCmax,RCC II; 5XCmax,0
same,RCC II at 10XCmax,RCC II; 10XCmax,0
same,RCC II at 20XCmax,RCC II; 20XCmax,0
same,RCC II at 30XCmax,RCC II; 30XCmax,0
same,RCC II at 50XCmax,RCC II; 50XCmax,0
same,RCC II at 100XCmax,RCC II; 100XCmax,0
same,State 3 respiration driven by succinate at 1XCmax,[2]; [6],0
same,State 4 respiration driven by succinate at 1XCmax,[2]; [6],0
same,State 3 respiration driven by succinate at 2.5XCmax,[2]; [7],0
same,State 4 respiration driven by succinate at 2.5XCmax,[2]; [7],0
same,State 3 respiration driven by succinate at 5XCmax,[2]; [8],0
same,State 4 respiration driven by succinate at 5XCmax,[2]; [8],0
same,State 3 respiration driven by succinate at 10XCmax,[2]; [9],0
same,State 4 respiration driven by succinate at 10XCmax,[2]; [9],0
same,State 3 respiration driven by succinate at 20XCmax,[2]; [10],0
same,State 4 respiration driven by succinate at 20XCmax,[2]; [10],0
same,Glutamate/malate driven respiration State 3,[2]; 30-fold Cmax,0.76 ± 0.05
same,Glutamate/malate driven respiration State 4,[2]; 30-fold Cmax,0.95 ± 0.06
same,Succinate-driven respiration State 3,[2]; 30-fold Cmax,0.86 ± 0.04
same,Succinate-driven respiration State 4,[2]; 30-fold Cmax,0.94 ± 0.01
same,State 3 respiration driven by glutamate/malate at 30XCmax,[2]; [11],0.76±0.05
same,State 3 respiration driven by succinate at 30XCmax,[2]; [11],0
same,State 4 respiration driven by succinate at 30XCmax,[2]; [11],0
same,Glutamate/malate driven respiration State 3,[2]; 50-fold Cmax,0.70 ± 0.02
same,Glutamate/malate driven respiration State 4,[2]; 50-fold Cmax,0.93 ± 0.01
same,Succinate-driven respiration State 3,[2]; 50-fold Cmax,0.90 ± 0.01
same,Succinate-driven respiration State 4,[2]; 50-fold Cmax,0.96 ± 0.03
same,State 3 respiration driven by glutamate/malate at 50XCmax,[2]; [12],0.70±0.02
same,State 3 respiration driven by succinate at 50XCmax,[2]; [12],0
same,State 4 respiration driven by succinate at 50XCmax,[2]; [12],0
same,Glutamate/malate driven respiration State 3,[2]; 100-fold Cmax,0.74 ± 0.04
same,Glutamate/malate driven respiration State 4,[2]; 100-fold Cmax,1.06 ± 0.06
same,Succinate-driven respiration State 3,[2]; 100-fold Cmax,0.99 ± 0.03
same,Succinate-driven respiration State 4,[2]; 100-fold Cmax,1.07 ± 0.03
same,State 3 respiration driven by glutamate/malate at 100XCmax,[2]; [13],0.74±0.04
same,State 3 respiration driven by succinate at 100XCmax,[2]; [13],0
same,State 4 respiration driven by succinate at 100XCmax,[2]; [13],0
same,lowest concentration significantly affecting mitochondrial oxygen consumption,[2]; tested at 1 to 100-fold Cmax,30 fold Cmax
same,Cmax,"[3]; human therapeutic Cmax at FDA recommended dosages, ref product labeling and drug approval packages at the official FDA website",0.68 µM
same,Cmax (ng or µg/ml),"[3]; human therapeutic maximal blood concentration, ref product labeling",0.291 µg/mL
same,Cmax,"[3]; read-out: Cmax at µM, human therapeutic maximal blood concentration, ref product labeling",0.68 µM
same,RCC I at 10XCmax,RCC I,0
same,RCC V at 5XCmax,RCC V; 5XCmax,0
same,RCC V at 50XCmax,RCC V; 50XCmax,0
same,ROS measured by CM-H2DCFDA at 1XCmax,[4]; 1XCmax,0
same,ROS measured by CM-H2DCFDA at 2.5XCmax,[4]; 2.5XCmax,0
same,ROS measured by CM-H2DCFDA at 5XCmax,[4]; 5XCmax,0
same,ROS measured by CM-H2DCFDA at 10XCmax,[4]; 10XCmax,0
same,ROS measured by CM-H2DCFDA at 20XCmax,[4]; 20XCmax,0
same,ROS measured by CM-H2DCFDA at 30XCmax,[4]; 30XCmax,0
same,ROS measured by CM-H2DCFDA at 50XCmax,[4]; 50XCmax,0
same,ROS measured by CM-H2DCFDA at 100XCmax,[4]; 100XCmax,0
same,MMP measured by Rhodamine 123 at 1XCmax,[5]; 1XCmax,0
same,MMP measured by Rhodamine 123 at 2.5XCmax,[5]; 2.5XCmax,0
same,MMP measured by Rhodamine 123 at 5XCmax,[5]; 5XCmax,0
same,MMP measured by Rhodamine 123 at 10XCmax,[5]; 10XCmax,0
same,MMP measured by Rhodamine 123 at 20XCmax,[5]; 20XCmax,0
same,MMP measured by Rhodamine 123 at 30XCmax,[5]; 30XCmax,0
same,MMP measured by Rhodamine 123 at 50XCmax,[5]; 50XCmax,0
same,MMP measured by Rhodamine 123 at 100XCmax,[5]; 100XCmax,0
same,RCC III at 100XCmax,RCC III,0
